Reference: patent EP0472573B1, “HERBICIDE RESISTANT MAIZE” (ZENECA LIMITED, priority 1989, dated 1990)

How the values were obtained:
[1] = test system: Mutant 2 plants; test: Cross-resistance testing (glasshouse dose response), Mutant 2; type: in vivo, Zea mays; settings: pre-emergence spray, assessed after four weeks growth
Excerpt: (§1) The seeds used in this screen were populations of mixed tolerant and sensitive seed, segregating 1:1, derived from each of the heterogygous, tolerant mutants crossed with homozygous, sensitive UE95. All of the tolerant progeny are heterozygous for tolerance. Each of the mutants identified above were used except mutant 4. The controls were seed of self-pollinated UE95 which was pollinated in the same year as the tolerant lines.
(§2) One litre of compost was placed in each seed tray of dimensions 19cm x 11cm x 5cm deep and firmed down flat. Two furrows 1 cm deep were drawn in the surface of the compost in each tray and six seeds were sown in each furrow (total twelve seeds per tray). Some trays were sown with 24 seeds, in which case three furrows were made and 8 seeds sown per furrow.
(§3) In each test each tray contained either the seed of one mutant or of the UE95 control for each herbicide application rate and for the untreated control.
(§4) Five different types of ALS-inhibitor herbicides were tested on the mutants plus imazethapyr (PURSUIT) as a comparison. Four rates of each were applied; approximately 0.1x, 0.5x, 1x and 4x the estimated field rates for each herbicide. The rates are the same for mutant 3 to 10 but higher rates for chlorimuron (CLASSIC) and lower rates for chlorsulfuron (GLEAN) were applied to mutants 1 and 2.
(§5) The rates of application used in the screening tests were as follows: chlorimuron (CLASSIC) 4,20,40,160 g/Ha (mutants 1 and 2); and, 8,40,80,320 g/Ha (mutants 3 to 10); chlorsulfuron (GLEAN) 5,25,50,200 g/Ha (mutants 1 and 2); and, 1,5,10,40 g/Ha (mutants 3 to 10); imazaquin (SCEPTER) 30,150,300,1200 g/Ha; triazolopyrimidine 5,25,50,200 g/Ha; phenoxypyrimidine 10,50,100,400 g/Ha; and, imazethapyr (PURSUIT) 30,150,300,1200 g/Ha The triazolopyrimidine and phenoxypyrimidine were formulated in an adjuvant wetting agent known as JF5969 and diluted with water to make a final concentration of 10% JF5969. The remaining compounds were diluted with water only.
(§6) The spray jet and parameters were as decribed above under "SCREENING". After spraying, the seeds were covered with 0.5 litre of compost and firmed down flat (2.5cm covering) and grown under the conditions described under "SCREENING" above.
(§7) Visual assessments were made of the plants after four weeks growth. Each plant was scored on a scale of zero to 5 and the height measured from soil surface to the tallest leaf tip. The scoring scale was as follows: 0 - 0 to 10% damage (little or no herbicidal effect) 1 - 11 to 25% damage 2 - 26 to 50% damage 3 - 51 to […] 4 - 81 to 95% damage 5 - 96 to 100% damage (complete death of the plant) In carrying out these assessments, plants which were obviously of the sensitive phenotype were ignored (approximately 50% of the plants). […]

[2] = target: ALS enzyme extracted from Mutant 2 (heterozygous); test: ALS enzyme assay, heterozygous Mutant 2; type: biochemical, Zea mays; settings: for IC50: ALS of heterozygous Mutant 2, read-out: ID50% (the source's name); for resistance group, Enzyme Assay: Mutant 2, groups Strong, Intermediate, Weak, Zero; for Fold Increase: fold increase in resistance vs wild type, heterozygous Mutant 2, 30 min
Protocol: (§8) Seeds of generation M₁BC₁ M₁BC₂ of the nine mutants were sprayed pre-emergence with the herbicide imazethapyr (PURSUIT) (Trade Mark) at a rate of 250 g/ha and grown in a growth chamber (16 hour day, 27°C; 8 hour night, 17°C). Plants were harvested after 11 days.
(§9) Four grams of leaf material were harvested from just above the first leaf axis and ground in a mortar and pestle in 20ml of a solution containing 40mM Tricine (Trade Mark), 10mM EDTA, 5mM pyruvate, 80 »M flavin adenine dinucleotide (FAD), 1mM dithiothreitol (DTT), pH 8, plus 0.8g Polyclar AT. The homogenate was pressed through four layers of muslin and centrifuged at 30,000g for 20 minutes.
(§10) The supernatant was brought to 65% saturation with ammonium sulphate, left to precipitate for 30 minutes and then centrifuged at 30.000g for 20 minutes. The pellet was resuspended in 2.5ml of 40mM Tricine, 10mM EDTA, 5mM pyruvate, 80»M FAD, 25% (v/v) glycerol, 1mM DTT, pH 8, and desalted into 3.5ml of 40mM Tricine, 10mM EDTA, 25% (v/v) glycerol, 1mM DTT, pH 8.
(§11) One hundred microlitres of the enzyme extract was used for each assay. Final reagent concentrations were: 120mM Tricine, 50mM pyruvate, 10mM MgCl₂, […], 93»M thiamine pyrophosphate (TPP), pH 8, in the presence or absence of a herbicide of interest, in a volume of 750 »l. Incubations were carried out at 37°C for 30 minutes. Reactions were stopped with 250»l of 1.84M sulphuric acid, and decarboxylation of the acetolactate carried out at 37°C for 75 minutes, or at 60°C for 30 minutes. Assay blanks had sulphuric acid added prior to the enzyme extract. To the samples and blanks 650»l of α-naphthol in 2.73M NaOH/0.16%(w/v) creatine were added followed by incubation at 37°C for 30 minutes. After centrifugation at 30,000g the optical density of the supernatant was read at 540nm.
(§12) The assay procedure described was carried out on ALS enzyme extracted from each of the nine mutants for the following herbicides: imazethapyr (PURSUIT) imazapyr (ARSENAL) imazaquin (SCEPTER) chlorsulfuron (GLEAN) chlorimuron (CLASSIC) […] (HARMONY) The enzyme activity graphs are given as Figures 3 to 8. In addition, homozygous lines of mutants 1 and 2 which were selected from generation M₁BC₁S₂, were also tested against the same group of herbicides and against representatives of the triazolopyrimidines and phenoxypyrimidines. The chemical structures of these herbicides are shown in Figure 2 of the accompanying drawings.
(§13) From the enzyme assay data it is possible to derive, as a measure of the degree of inhibition the factor ID50% for each mutant and for each herbicide. This factor is indicative of the herbicide concentration which gives 50% inhibition of the ALS activity in comparison with the wild-type control. It is also possible to derive the fold increase in resistance.

[3] = test system: Mutant 8 plants; test: Cross-resistance testing (glasshouse dose response), Mutant 8; type: in vivo, Zea mays; settings: pre-emergence spray, assessed after four weeks growth
Excerpt: as §1, §2, §3, §4, §5, §6, §7

[4] = test system: Mutant 7 plants; test: Cross-resistance testing (glasshouse dose response), Mutant 7; type: in vivo, Zea mays; settings: pre-emergence spray, assessed after four weeks growth
Excerpt: as §1, §2, §3, §4, §5, §6, §7

[5] = test system: Mutant 5 plants; test: Cross-resistance testing (glasshouse dose response), Mutant 5; type: in vivo, Zea mays; settings: pre-emergence spray, assessed after four weeks growth
Excerpt: as §1, §2, §3, §4, §5, §6, §7

[6] = test system: Mutant 10 plants; test: Cross-resistance testing (glasshouse dose response), Mutant 10; type: in vivo, Zea mays; settings: pre-emergence spray, assessed after four weeks growth
Excerpt: as §1, §2, §3, §4, §5, §6, §7

[7] = target: ALS enzyme extracted from Mutant 1 (heterozygous); test: ALS enzyme assay, heterozygous Mutant 1; type: biochemical, Zea mays; settings: for IC50: ALS of heterozygous Mutant 1, read-out: ID50% (the source's name); for resistance group, Enzyme Assay: Mutant 1, groups Strong, Intermediate, Weak, Zero; for Fold Increase: fold increase in resistance vs wild type, heterozygous Mutant 1, 30 min
Protocol: as §8, §9, §10, §11, §12, §13

[8] = test system: Mutant 1 plants; test: Cross-resistance testing (glasshouse dose response), Mutant 1; type: in vivo, Zea mays; settings: pre-emergence spray, assessed after four weeks growth
Excerpt: as §1, §2, §3, §4, §5, §6, §7

SMILES	resistance group, Dose Response [1]	IC50 [2]	resistance group, Enzyme Assay [2]	Fold Increase [2]	resistance group, Dose Response [3]	resistance group, Dose Response [4]	resistance group, Dose Response [5]	resistance group, Dose Response [6]	IC50 [7]	resistance group, Enzyme Assay [7]	Fold Increase [7]	resistance group, Dose Response [8]
COc1cc(Cl)nc(NC(=O)NS(=O)(=O)c2ccccc2C(=O)O)n1 [Chlorimuron, chlorimuron]	Zero	0.01 µM	Weak	3	Zero	Zero	Zero	Weak	0.005 µM	Weak	1	Zero
COc1nc(C)nc(NC(=O)NS(=O)(=O)c2ccccc2Cl)n1 [Chlorsulfuron, chlorsulfuron]	Zero	0.065 µM	Weak	4	Zero	Weak	Weak	Weak and Zero	0.065 µM	Weak	4	Zero
CC(C)C1(C)N=C(c2nc3ccccc3cc2C(=O)O)NC1=O (stereo not drawn) [Imazaquin, imazaquin]	Strong	20 µM	Intermediate	33	Strong	Zero	Intermediate	Weak	150 µM	Strong	250	Strong
CCc1cnc(C2=NC(=O)C(C)(C(C)C)N2)c(C(=O)O)c1 (stereo not drawn) [Imazethapyr, 5-ethyl-2-(5-iso-propyl-5-methyl-4-oxo-2-imidazolin-2-yl) nicotinic acid]	Intermediate	230 µM	Intermediate	153	Strong	Weak	Strong	Intermediate	> 1000 µM	Strong	>660	Strong
